Test results taken from patent US20240252651A1, “METHOD OF DELIVERING NUCLEIC ACIDS INTO CELLS” (GUANGZHOU LIDE BIOMEDICINE TECHNOLOGY CO., LTD., priority 2021, published 2024).
“Also recorded” adds a separate entry of the source.

Legend:
[1] = test system: DC2.4, RAW 264.7, A549, BxPC3, and HeLa cells; assay: Transfection of GFP-expressing plasmid DNA in different types of cells (LSCM); assay type: cell-based, human, mouse; settings: material 0.5 to 3 μg/well, plasmid DNA 0.5 μg/well, 24 h, FIG. 6
Method: In this experiment, with I2R3C18-1A1 as a representative cationic lipid analog material and GFP-expressing plasmid DNA as a reporter gene, transfection effects of the cationic lipid analog material at different dosages (0.5 μg/well to 3 μg/well) for plasmid DNA (0.5 μg/well) in different types of cells were investigated. A commercial gene transfection reagent Lipofectamine 2000 was adopted as a positive control. In this experiment, a GFP-expressing plasmid DNA-loaded I2R3C18-1A1 particle complex solution was prepared with reference to the method in Example 8 and added to DC2.4, RAW 264.7, A549, BxPC3, and HeLa cells respectively, these cells were cultured for 24 h, and then a transfection efficiency of plasmid DNA in cells was observed by LSCM.

A549 cells (A549-Luc) = assay: siRNA transfection, luciferase gene silencing in A549-Luc cells; assay type: cell-based, human; settings: final siRNA 100 nM, material 0.5 to 3 μg/well, 48 h, FIG. 10
Method: In this experiment, with I2R2C18-1A1, I2R3C18-1A1, I2R2C18-2A1, and I2R3C18-2A1 as representative cationic lipid analog materials, siRNA transfection and delivery effects of the cationic lipid analog materials were detected in A549 cells (A549-Luc). A specific operation method was as follows:
Luciferase-expressing A549 cells (A549-Luc) were inoculated in a 96-well plate and cultured in an incubator for 12 h; each of different materials (0.5 μg/well to 3 μg/well) was mixed with siRNA in 40 μL of a sodium acetate buffer (25 mM, pH 5.2), and resulting mixtures each were allowed to stand for 10 min and then diluted with 460 μL of an Opti-MEM medium to obtain siRNA-loaded complex particle solutions (final siRNA concentration was 100 nM); a medium for the A549-Luc cells in the plate was removed, then the A549-Luc cells were washed once with PBS, and the complex particle solutions each were added in a volume of 125 μL; the cells were cultured for 48 h, then a resulting culture supernatant was discarded, and the cells were fully lysed; and a substrate was added at 50 μl/well, and an expression level of luciferase was detected by a multi-mode microplate reader.

Hela cells [2] = assay: Transfection of luciferase-expressing plasmid DNA in HeLa cells (luciferase expression); assay type: cell-based, human; settings: plasmid DNA 0.5 μg, 24 h, luciferase expression level, FIG. 5
Method: In this example, with luciferase-expressing plasmid DNA as a reporter gene, a gene transfection efficiency of a cationic lipid analog material in HeLa cells was detected. A specific operation method was as follows: Hela cells were inoculated in a 96-well plate and cultured in an incubator for 12 h; each of different cationic lipid analog materials was mixed with luciferase-expressing plasmid DNA (0.5 μg) in 40 μL of a sodium acetate buffer (25 mM, pH 5.2), and resulting mixtures each were allowed to stand for 10 min and then diluted with 460 μL of an Opti-MEM medium to obtain plasmid DNA-loaded cationic lipid analog complex particle solutions; a medium for the Hela cells in the plate was removed, then the Hela cells were washed once with PBS, and the complex particle solutions were added in a volume of 125 μL; the cells were cultured for 24 h, then a resulting culture supernatant was discarded, and the cells were fully lysed; and a substrate was added at 50 μl/well, and an expression level of luciferase was detected by a multi-mode microplate reader.

DC 2.4 cells = assay: Transfection of eGFP-mRNA in DC 2.4 cells (FCM and LSCM); assay type: cell-based, mouse; settings: mRNA 0.2 μg/well, material 0.25 to 2 μg/well (dosages per FIG. 7), 24 h, FIG. 7-9
Method: In this experiment, with eGFP-mRNA as model mRNA, an mRNA transfection efficiency of a cationic lipid analog material in DC 2.4 cells was detected. A specific operation method was as follows:
DC 2.4 cells were inoculated in a 48-well plate and cultured in an incubator for 12 h; each of different cationic lipid analog materials (0.25 μg/well to 2 μg/well) was mixed with cGFP-expressing mRNA (0.2 μg/well) in 20 μL of a sodium acetate buffer (25 mM, pH 5.2), and resulting mixtures each were allowed to stand for 10 min and then diluted with 230 μL of a Opti-MEM medium to obtain mRNA-loaded complex particle solutions; a medium for the […] were washed once with PBS, and the complex particle solutions were added; and the cells were cultured for 24 h, an mRNA transfection efficiency in cells was observed by FCM and LSCM. A commercial gene transfection reagent Lipofectamine 2000 was adopted as a positive control.

Hela cells [3] = assay: Transfection of GFP-expressing plasmid DNA in Hela cells (flow cytometer); assay type: cell-based, human; settings: plasmid DNA 0.5 μg/well, material 0.25 to 8 μg/well (dosages per FIG. 4), 24 h
Method: In this experiment, with GFP-expressing plasmid DNA as a reporter gene, a gene transfection efficiency of a cationic lipid analog material in Hela cells was detected. A specific method was as follows:
Hela cells were inoculated in a 24-well plate and cultured in an incubator for 12 h; each of different cationic lipid analog materials (0.25 μg/well to 8 μg/well) was mixed with GFP-expressing plasmid DNA (0.5 μg/well) in 40 μL of a sodium acetate buffer (25 mM, pH 5.2), and resulting mixtures each were allowed to stand for 10 min and then diluted with 460 μL of an Opti-MEM medium to obtain plasmid DNA-loaded cationic lipid analog complex particle solutions; a medium for the Hela cells in the plate was removed, then the HeLa cells were washed once with PBS, and the complex particle solutions were added; and the cells were cultured for 24 h, and then a plasmid DNA transfection efficiency in cells was analyzed by a flow cytometer. A commercial gene transfection reagent Lipofectamine 2000 was adopted as a positive control.

## CCCCCCCC/C=C\CCCCCCCC(=O)N(CCCN(CC)CC)C(C(=O)NCCOCCOCCNC(=O)C(C(C)C)N(CCCN(CC)CC)C(=O)CCCCCCC/C=C\CCCCCCCC)C(C)C (stereo not drawn) [I2R3C18-1A1]
[1]
  transfection of GFP-expressing plasmid DNA in different types of cells: can transfect GFP-expressing plasmid DNA into tumor cells and immune cells
A549 cells (A549-Luc)
  gene silencing efficiency as a function of material dosage: increases with the increase of a dosage
  siRNA transfection, silencing of the luciferase reporter gene: efficient gene silencing; also recorded: can transfect siRNA into cells to specifically silence the expression of the luciferase reporter gene
Hela cells [2]
  transfection efficiency of luciferase-expressing plasmid DNA, compared with Lipofectamine 2000: equivalent to or higher than
DC 2.4 cells
  mRNA transfection efficiency (eGFP-mRNA), compared with Lipofectamine 2000: high transfection efficiency; also recorded: equivalent to or higher than
Hela cells [3]
  transfection efficiency of GFP-expressing plasmid DNA, compared with commercial transfection reagent Lipofectamine 2000: reaches or is higher than; also recorded: equivalent to or higher than
